In brackets after ≈: the same amount, converted by molar mass. Where two headings read alike, the source gives them in different places.
Assays:
SAR-CoV-2 = conditions: cited from earlier work
SARS-CoV-2 = conditions: Pruijssers et al., 2020, cited from earlier work
[1] = cited from earlier work
[2] = Solubility in simulated lung fluid (SLF); assay type: physicochemical; conditions: for solubility in SLF: 25° C., 24 h
Procedure: The composition and preparation of simulated lung fluid (SLF) were adapted from Hassoun's study (Hassoun et al., 2018). SLF contained dipalmitoylphosphotidylcholine (DPPC), cholesterol, albumin, transferrin, ascorbic acid and Hank's balanced salt solution (HBSS). The SLF was prepared by two steps including a preparation of liposomal dispersion and freeze drying as described in Hassoun et al. (Hassoun et al., 2018). In the first step, a liposomal dispersion was prepared by mixing 2.12 mL of 25 mg/mL DPPC and 5 μL of 200 mg/mL cholesterol in chloroform. Then, the solution was dried using an evaporator until the dry film was obtained. The thin film of lipid was dispersed by adding 8 mL of 57 mg/mL bovine serum albumin in water, 1 mL of 15 mg/mL transferrin in water, and 88.5 μL of 10 mM ascorbate solution. The mixture was sonicated until it fully dispersed. The dispersion was adjusted to 10 mL by adding 1M HBSS). The dispersion was frozen at −20° C. for 6 h, and primary dried in the lyophilizer at −40° C. for 30 h and ramp to 25° C. for 12 h and finally secondary dried at 25° C. for 20 h. The lyophilized SLF was stored at 2-8° C. and reconstituted with purified water upon solubility and dissolution testing.
The excess amount of powder was added in SLF until precipitation occurred. Then the samples were shaken on the orbital shaker at 250 rpm and 25° C. for 24 h. The samples were collected and centrifuged at 13,000 rpm for 15 min. The supernatants were collected and then diluted with DMSO/acetonitrile (10/90). The samples were centrifuged again at 13,000 rpm for 15 min to separate proteins in SLF. The supernatants were collected and analyzed by HPLC.

[3] = rats; cited from earlier work

**Q.** What does the source list for `N#C[C@@]1(c2ccc3c(N)ncnn23)O[C@H](CO)[C@@H](O)[C@H]1O` [GS-441524]?
**A.** EC50 (SAR-CoV-2; human airway epithelial (HAE), Agostini et al., 2018): 0.05243 µg/mL; EC50 (SAR-CoV-2; read-out: EC50): 180 nM; EC50 (SARS-CoV-2; Calu3 2B4 cells, read-out: EC50): 620 nM; EC50 (SARS-CoV-2; Calu-3 2B4 cells): 0.1806 µg/mL; half-life ([1]; human, in vivo, iv): approximately 24.5 h

**Q.** Which “increase in solubility compared to crystalline neat remdesivir” value [2] does the source give for `CCC(CC)COC(=O)[C@H](C)N[P@](=O)(OC[C@H]1O[C@@](C#N)(c2ccc3c(N)ncnn23)[C@H](O)[C@@H]1O)Oc1ccccc1` [amorphous remdesivir, remdesivir] here?
**A.** 20 fold

**Q.** What about the “solubility of amorphous versus crystalline remdesivir” value [2] of the same compound?
**A.** about 20 times

**Q.** What about the “solubility in SLF” value [2] of the same compound?
**A.** 590 ± 10 µg/mL (≈ 979 µM)

**Q.** For `CCC(CC)COC(=O)[C@H](C)N[P@](=O)(OC[C@H]1O[C@@](C#N)(c2ccc3c(N)ncnn23)[C@H](O)[C@@H]1O)Oc1ccccc1` [crystalline remdesivir, remdesivir], which “solubility in SLF” value [2] is on record?
**A.** 30 ± 1 µg/mL (≈ 49.8 µM)

**Q.** With `CCC(CC)COC(=O)[C@H](C)N[P@](=O)(OC[C@H]1O[C@@](C#N)(c2ccc3c(N)ncnn23)[C@H](O)[C@@H]1O)Oc1ccccc1` [remdesivir] as the compound, how does the “half-life of remdesivir in plasma” value [3] read?
**A.** less than 0.9 min

**Q.** And the half-life ([1]; humans, multiple IV administrations once a day)?
**A.** about 1 h

Reference: patent US20230263816A1, “PHARMACEUTICAL COMPOSITIONS FOR DELIVERY OF REMDESIVIR BY INHALATION” (priority 2020, published 2023)
